Square brackets hold non-standard residues; d marks the D form. Peptide text beside a SMILES is read from it. dNle = CCCC[C@@H](N)C(=O)O; dNva = CCC[C@@H](N)C(=O)O; Orn = NCCC[C@H](N)C(=O)O
How the values were obtained:
Mus musculus [1] = organism: Mus musculus; assay: Concentration of compound to inhibit 50% (IC50) electrically evoked contractions was tested in Mouse vas deferens (MVD) assay.; assay type: functional
Cavia porcellus [2] = organism: Cavia porcellus; assay: Ke value for naloxon as antagonist (compound) was measured by using Guinea pig ileum assay.; assay type: functional
Mus musculus [3] = organism: Mus musculus; assay: Ke value for naloxone as antagonist (compound) was measured by using Mouse vas deferens (MVD) assay.; assay type: functional
Cavia porcellus [4] = organism: Cavia porcellus; assay: Concentration of compound to inhibit 50% (IC50) electrically evoked contractions was tested in Guinea pig ileum(GPI) assay.; assay type: functional
Mu-type opioid receptor [5] = biological target: T1, Mu-type opioid receptor (Rattus norvegicus, UniProt P33535); assay: Binding affinity against opioid receptor mu by displacement of radioligand [3H]DAGO in rat brain membrane; assay type: cell membranes
T1 sequence (P33535 whole entry): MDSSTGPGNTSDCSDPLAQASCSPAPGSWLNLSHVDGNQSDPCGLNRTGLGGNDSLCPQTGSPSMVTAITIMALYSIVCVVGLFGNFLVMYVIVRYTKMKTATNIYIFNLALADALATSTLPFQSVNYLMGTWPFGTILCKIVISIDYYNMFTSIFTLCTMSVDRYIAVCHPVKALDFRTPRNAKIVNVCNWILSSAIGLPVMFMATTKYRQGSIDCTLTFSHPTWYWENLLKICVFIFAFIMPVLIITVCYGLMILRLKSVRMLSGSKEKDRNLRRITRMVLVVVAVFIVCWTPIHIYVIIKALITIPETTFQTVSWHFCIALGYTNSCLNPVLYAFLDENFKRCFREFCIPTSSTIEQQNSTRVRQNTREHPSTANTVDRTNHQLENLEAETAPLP

[6] = biological target: T2, Delta-type opioid receptor (Rattus norvegicus, UniProt P33533); assay: Binding affinity against opioid receptor delta by displacement of radioligand [3H]DSLET in rat brain membrane; assay type: cell membranes
T2 sequence (P33533 whole entry): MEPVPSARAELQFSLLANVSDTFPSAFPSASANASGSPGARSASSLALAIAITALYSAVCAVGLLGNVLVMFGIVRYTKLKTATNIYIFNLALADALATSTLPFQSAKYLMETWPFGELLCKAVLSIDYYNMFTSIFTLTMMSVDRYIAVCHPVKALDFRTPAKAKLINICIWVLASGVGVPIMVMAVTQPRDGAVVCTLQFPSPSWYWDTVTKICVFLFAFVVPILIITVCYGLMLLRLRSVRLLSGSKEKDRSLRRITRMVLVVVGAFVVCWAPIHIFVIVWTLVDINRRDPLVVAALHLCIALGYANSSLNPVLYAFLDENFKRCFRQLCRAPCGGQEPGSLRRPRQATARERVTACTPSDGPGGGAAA

[7] = Ratio of IC50 in Mouse vas deferens and Guinea pig ileum assay; assay type: functional
Cavia porcellus [8] = organism: Cavia porcellus; assay: The relative potency of compound was measured by comparing with [Leu]enkephalin in Guinea pig ileum(GPI) assay.; assay type: functional
Mus musculus [9] = organism: Mus musculus; assay: The relative potency of compound was measured by comparing with [Leu]enkephalin in Mouse vas deferens (MVD) assay.; assay type: functional
Cavia porcellus [10] = organism: Cavia porcellus; assay: The relative potency of compound was measured by comparing the potency of compound to the [Leu]enkephalin in Guinea pig ileum(GPI) assay.; assay type: functional
Mus musculus [11] = organism: Mus musculus; assay: The relative potency of compound was measured by comparing the potency of compound to the [Leu]enkephalin in Mouse vas deferens (MVD) assay.; assay type: functional
[12] = biological target: T2, Delta-type opioid receptor; assay: Binding affinity against Opioid receptor delta 1 by displacement of radioligand [3H]DSLET in rat brain membrane; assay type: cell membranes
[13] = biological target: Delta-type opioid receptor (Rattus norvegicus) (UniProt P33533); assay: The relative potency of compound was measured against Opioid receptor delta 1 to that of [Leu]enkephalin in [3H]DSLET binding assay.
Chain of Delta-type opioid receptor (Rattus norvegicus) (P33533 whole entry): as above

[14] = biological target: Mu-type opioid receptor (Rattus norvegicus) (UniProt P33535); assay: The relative potency of compound was measured against Opioid receptor mu 1 to that of [Leu]enkephalin in [3H]DAGO binding assay.
Chain of Mu-type opioid receptor (Rattus norvegicus) (P33535 whole entry): as the sequence (P33535 whole entry) above

Mu-type opioid receptor [15] = biological target: T1, Mu-type opioid receptor; assay: Binding affinity against Opioid receptor mu 1 by displacement of radioligand [3H]-DAGO in rat brain membrane; assay type: cell membranes
[16] = biological target: T2, Delta-type opioid receptor; assay: Binding affinity against delta opioid receptor by displacement of radioligand [3H]DSLET in rat brain membrane; assay type: cell membranes
Mu-type opioid receptor [17] = biological target: T1, Mu-type opioid receptor; assay: Binding affinity against mu opioid receptor by displacement of radioligand [3H]DAGO in rat brain membrane; assay type: cell membranes
[18] = biological target: Mu-type opioid receptor (Rattus norvegicus) (UniProt P33535); assay: The relative potency of compound was measured against Opioid receptor mu to that of [Leu]enkephalin in [3H]DAGO binding assay.
[19] = biological target: Mu-type opioid receptor (Rattus norvegicus) (UniProt P33535); assay: Ratio of binding affinity of opioid receptor mu and opioid receptor delta
[20] = biological target: Delta-type opioid receptor (Rattus norvegicus) (UniProt P33533); assay: The relative potency of compound was measured against opioid receptor delta to that of [Leu]enkephalin in [3H]DSLET binding assay.
[21] = biological target: Delta-type opioid receptor (Rattus norvegicus) (UniProt P33533); assay: The relative potency of compound was measured against dOpioid receptor delta 1 to that of [Leu]enkephalin in [3H]DSLET binding assay.
Mu-type opioid receptor [22] = biological target: T1, Mu-type opioid receptor; assay: Binding affinity against Opioid receptor mu 1 by displacement of radioligand [3H]DAGO in rat brain membrane; assay type: cell membranes

SMILES	IC50 (Mus musculus [1]) [nM]	Ke (Cavia porcellus [2]) [nM]	Ke (Mus musculus [3]) [nM]	IC50 (Cavia porcellus [4]) [nM]	Ratio [7]	Relative potency (Cavia porcellus [10])	Relative potency (Mus musculus [11])	other results
NCCCC[C@H](NC(=O)[C@H](Cc1ccccc1)NC(=O)[C@@H](CCCN=C(N)N)NC(=O)[C@@H](N)Cc1ccc(O)cc1)C(N)=O	781	1.17	1.64	254				
NC(=O)[C@@H]1CC(=O)NCCC[C@@H](NC(=O)[C@@H](N)c2ccc(O)cc2)C(=O)N[C@@H](Cc2ccccc2)C(=O)N1 [listing 1 of 2 here]	3880			36.2				Ki (Mu-type opioid receptor [5]): 10.4 nM; Ki [6]: 2220 nM
N=C(N)NCCC[C@@H](NC(=O)C(N)Cc1ccc(O)cc1)C(=O)NC(Cc1ccccc1)C(=O)NCCC(N)C(=O)O (stereo not given in full)								Ki (Mu-type opioid receptor [5]): 5.78 nM; Ki [6]: 12600 nM
CCC[C@@H](NC(=O)[C@@H](N)Cc1ccc(O)cc1)C(=O)N[C@@H](Cc1ccccc1)C(=O)N[C@@H](CCCN)C(N)=O (H-Y[dNva]F[Orn]-NH2)	271	1.55	1.47	104	2.61			Relative potency (Cavia porcellus [8]): 2.36; Relative potency (Mus musculus [9]): 0.042
CCCC[C@@H](NC(=O)[C@@H](N)Cc1ccc(O)cc1)C(=O)N[C@@H](Cc1ccccc1)C(=O)N[C@@H](CCCN)C(N)=O (H-Y[dNle]F[Orn]-NH2)	2290	1.01	1.5	168	13.6			Relative potency (Cavia porcellus [8]): 1.46; Relative potency (Mus musculus [9]): 0.00498
NC(=O)[C@H](CCCN=C(N)N)NC(=O)[C@H](CCCN=C(N)N)NC(=O)[C@@H]1CC(=O)NCCC[C@@H](NC(=O)[C@@H](N)Cc2ccc(O)cc2)C(=O)N[C@@H](Cc2ccccc2)C(=O)N1 [listing 1 of 2 here]		2.03	2.02		18.2	6.01	0.0153	
C[C@@H](NC(=O)[C@@H](N)Cc1ccc(O)cc1)C(=O)N[C@@H](Cc1ccccc1)C(=O)N[C@@H](Cc1ccccc1)C(=O)N[C@@H](CCCN=C(N)N)C(=O)N[C@@H](CCCN=C(N)N)C(N)=O	1300	0.57	1.27	21.6	60.2	11.4	0.00875	Ki [12]: 167 nM; Relative potency [13]: 0.0152; Relative potency [14]: 3.67; Ki (Mu-type opioid receptor [15]): 2.57 nM
C[C@@H](NC(=O)[C@@H](N)Cc1ccc(O)cc1)C(=O)N[C@@H](Cc1ccccc1)C(=O)N[C@@H](Cc1ccccc1)C(N)=O (H-Y[dA]FF-NH2)	797	0.789	1.31	3.23	247			Relative potency (Cavia porcellus [8]): 76.2; Relative potency [13]: 0.00405; Relative potency (Mus musculus [9]): 0.0143; Relative potency [14]: 6.15
NC(=O)[C@H](CCCN=C(N)N)NC(=O)[C@H](CCCN=C(N)N)NC(=O)[C@@H]1CC(=O)NCCC[C@@H](NC(=O)[C@@H](N)Cc2ccc(O)cc2)C(=O)N[C@@H](Cc2ccccc2)C(=O)N1 [listing 2 of 2 here]	745			40.9				Ki [16]: 1880 nM; Ki (Mu-type opioid receptor [17]): 23.6 nM
C[C@@H](NC(=O)[C@@H](N)Cc1ccc(O)cc1)C(=O)NCC(=O)N(C)[C@@H](Cc1ccccc1)C(=O)NCCO [DAMGO]	950			28.3				Ki [12]: 1280 nM
NCCC[C@H](NC(=O)[C@H](Cc1ccccc1)NC(=O)[C@@H](CCCN=C(N)N)NC(=O)[C@@H](N)Cc1ccc(O)cc1)C(N)=O	1090	1.24	1.13	346	3.15	0.712	0.0105	Relative potency [18]: 7.83; Ratio [19]: 7740; Relative potency [20]: 0.000272
NC(=O)[C@@H]1CC(=O)NCCC[C@@H](NC(=O)[C@@H](N)c2ccc(O)cc2)C(=O)N[C@@H](Cc2ccccc2)C(=O)N1 [listing 2 of 2 here]		1.57	2.11		107	6.8	0.00294	
CCCC[C@H](NC(=O)[C@H](Cc1ccccc1)NC(=O)[C@@H](CCC)NC(=O)[C@@H](N)Cc1ccc(O)cc1)C(N)=O	153	1.72	1.27	30.6	5			Ki [12]: 181 nM; Relative potency [21]: 0.014; Relative potency (Cavia porcellus [8]): 8.04; Relative potency (Mus musculus [9]): 0.0745; Relative potency [14]: 2.67; Ki (Mu-type opioid receptor [22]): 3.53 nM
NC(=O)[C@H]1CC(=O)NCCC[C@H](NC(=O)[C@@H](N)c2ccc(O)cc2)C(=O)N[C@@H](Cc2ccccc2)C(=O)N1								Relative potency [18]: 0.907; Ratio [19]: 213; Relative potency [20]: 0.00114
NC(N)=NCCC[C@@H](NC(=O)C(N)Cc1ccc(O)cc1)C(=O)NC(Cc1ccccc1)C(=O)NCCC(N)C(=O)O (stereo not given in full)	659	1.32	1.01	257	2.56	0.956	0.0173	Relative potency [18]: 1.63; Ratio [19]: 2180; Relative potency [20]: 0.000202

From ChEMBL document CHEMBL1124430, “Dermorphin analogues carrying an increased positive net charge in their "message" domain display extremely high mu opioid receptor selectivity” (J Med Chem, 1989)
